# Test results published in publication PMC7343282, “Tissue Distribution of Several Series of Cationic Surfactants in Rainbow Trout (Oncorhynchus mykiss) Following Exposure via Water” (Environmental Science & Technology, 2020).
# Tests used:
# [1] = test system: rainbow trout (Oncorhynchus mykiss); assay: Apparent bioconcentration factor at end of 7-day exposure; format: in vivo; conditions: end of 7-day exposure, body burden including mucus
# Method: Apparent BCFs (BCFapp) at the end of the 7-day exposure were calculated by dividing the surfactant body burden (including mucus) by the fish mass, and dividing this by the average measured concentration in water samples taken during the exposure phase. The BCFapp values ranged from 0.1 to 1260 (Table S18). Given the short exposure period, it is possible that the fish in this study had not approached steady state, in particular with respect to the distribution between water and internal tissues and between water and skin, and that the steady-state BCFs are higher. […] We note that some improvements in the methodology would be helpful, particularly with respect to the stability of the aqueous exposure concentration of the longest chain surfactants. Working with mixtures of analogue cationic surfactants allowed for consistent evaluation of differences in accumulation trends due to structural features.
# [2] = test system: rainbow trout (Oncorhynchus mykiss); assay: Surface area-normalized mucus-water and gill-water distribution coefficients; conditions: for Gill-water distribution coefficient (DG-W): from average concentrations in gills and water, calculated gill surface; for Mucus-water distribution coefficient (DMuc-W): from average concentrations in mucus and water
# Method: For each mixture, the syringe pump was started in an aquarium containing no fish. After 16 h, to allow the concentrations to stabilize, 12 rainbow trout were added. After 7 d of exposure, the fish in the exposure aquaria as well as several unexposed (control) fish were sacrificed. Following stunning, blood was collected with a heparinized syringe from the caudal vein into a 2 mL Eppendorf tube. The fish were weighed and photographed, and the length was measured. The outer surface area of the fish was estimated from the fish weight according to O’Shea et al.[27] [drawing 1] 1
# The gill surface area was estimated from the fish weight according to the equation specific for O. mykiss from a report by Hughes,[28] taken from ref ([29]) [drawing 2] 2
# Because the mass of extracted mucus was not determined, the concentrations in mucus were normalized to the estimated fish’s total surface area (eq 1) excluding the head, which was not rinsed.
# Surface area-normalized gill–water distribution coefficients (DG–W) were calculated from the average concentrations measured in gills and water, and a calculated gill surface based on rainbow trout specific scaling factors (eq 2). […] Unlike the skin, the gills were not rinsed with methanol, so the gill samples included gill mucus.
# [3] = Membrane-water partition/distribution coefficient; conditions: extrapolated from data of Timmer and Droge (2017)
# [4] = test system: rainbow trout (Oncorhynchus mykiss); assay: Tissue concentrations in rainbow trout after 7 d exposure via water (two mixtures); format: in vivo
# Method: (§1) The study was conducted with rainbow trout (Oncorhynchus mykiss) weighing between 98 and 165 g. The fish were purchased from Nordic trout Sweden AB and held in the aquaria facility prior to the experiment in February 2018. Ethical approval for the experiments was obtained from Stockholms djurförsöksetiska nämnd (decision 9967-2017). The experiments were conducted in 300 L fiberglass aquaria with a water renewal rate of 1.3 L min^–1 (MIX 1) and 1.45 L min^–1 (MIX 2). The water temperature was 10 °C and the pH 7.5. The water hardness was estimated to be 1.1 mM Ca^2+ based on information from the water supplier. The aquaria water was circulated through a filter of polyester wool at 800–1200 L h^–1 with an Eheim 2273 Pro 4+ pump. The outflow from the filter pump was placed above the water surface, providing for aeration. The lighting was dim and programmed on a 12 h light/12 h dark cycle. The fish were fed fish food pellets supplied by the fish farm at 1.0% of their body weight per day.
# (§2) A solution of the test chemical mixture in methanol was infused continuously (3.5 and 3.8 μL min^–1 for MIX 1 and MIX 2, respectively) into the water inflow using a syringe pump. The intended concentrations of the chemicals in water ranged from 2.5 to 50 μg L^–1 (Table 1). They were selected with the help of modeled estimates of the BCF that were based on reported and extrapolated membrane water partition coefficients[7] and biotransformation rate constants predicted with quantitative structure activity relationships (QSARs)[24],[25] to parameterize the BIONIC model.[26] Based on these estimates, we selected an exposure concentration which would result in concentrations in fish that were clearly above the limit of quantification (LOQ) of the analytical method, while trying to keep the quantifiable exposure concentration as low as possible to minimize the risk of toxic effects and micelle formation (see comparison of intended concentrations with available toxicological data in Table S4).
# (§3) The surface of the fish posterior of the gills was rinsed with 100% methanol to remove test chemical residues adsorbed to the outer surface of the skin and absorbed in the skin mucus. […] The fish were dissected and the liver, the kidney, the gills, and the remaining contents of the abdominal cavity were taken and weighed. Skin and muscle samples were prepared from the upper dorsal region on semi-frozen fish after the methanol rinse had removed the mucus. The main part of the subcutaneous fat tissue was included in the muscle samples rather than in the skin samples. All samples were stored frozen at −20 °C until further analysis.
# (§4) For 6 fish from each aquarium and 3 control fish, samples of muscle, skin, liver, and gills were homogenized in a bullet blender (muscle and liver) (MiniG, SPEXsamplePrep) or in a cryo-mill (skin and gill) (Mixer mill cryomill, Retsch GmbH). A sub-sample of 0.5–1.2 g of the homogenate was extracted twice in methanol (4 mL, 50 °C, ultra-sound, 60 min), employing centrifugation at 4000 rpm for phase separation. Further information on the extraction efficiency of this method can be found in the Supporting Information (Table S5 and accompanying text). Isotope labeled standards of Q10 (D21), Q14 (D29), and P16 (D33) were added to a portion of the extract corresponding to 12–75 mg of the sample. The extract volume was adjusted to 3 mL with methanol and then cleaned up on a weak cationic exchange SPE column (WCX, 60 mg, 30 μm particle size, waters). Solvent elution was performed by gravity flow. The column was conditioned with 2 mL of methanol, followed by 2 mL of Milli-Q water adjusted to pH 7 with ammonium hydroxide to activate the ion exchange. The sample extract was loaded onto the column, and it was subsequently rinsed with 20 mL of methanol.
# [5] = Table S2; cited from earlier work
# [6] = Tissue concentrations in rainbow trout after 7 d exposure via water (two mixtures); format: in vivo, Oncorhynchus mykiss; conditions: rainbow trout (Oncorhynchus mykiss), in vivo
# Method: as §1, §2, §3, §4
# [7] = mean of exposed fish, Table S13
# [8] = mean of exposed fish, Table S14
# [9] = wet weight, mean of six fish (RSD %), 7 d exposure, Q10, Q14 below LOQ
# [10] = rainbow trout (Oncorhynchus mykiss), in vivo, 7 d
# [11] = rainbow trout (Oncorhynchus mykiss), in vivo, 7 d, pH 7.5
structure (smiles),measurement,setting,value
"CCCCCCCCCCCCCN(C)C [T13, N,N-dimethyltridecylamine]",Apparent bioconcentration factor (BCFapp),[1],510 L kg-1 wet weight
same,Gill-water distribution coefficient (DG-W),[2],58 mLcm-2
same,Mucus-water distribution coefficient (DMuc-W),[2],22 mL cm-2
same,"Log KMW,C (membrane-water partition coefficient of the charged form), extrapolated",[3],5.88
same,Concentration in blood,[4]; exposed fish #1,890 ng/g
same,Concentration in gills,[4]; exposed fish #1,9077 ng/g
same,"Concentration in gills, surface area-normalized",[4]; exposed fish #1,140 ng cm-2
same,Concentration in liver,[4]; exposed fish #1,6570 ng/g
same,Concentration in mucus,[4]; exposed fish #1,57 ng cm-2
same,Concentration in muscle,[4]; exposed fish #1,580 ng/g
same,Concentration in skin,[4]; exposed fish #1,1879 ng/g
same,"Concentration in skin, per surface area",[4]; exposed fish #1,89 ng cm-2
same,Concentration in blood,[4]; exposed fish #2,816 ng/g
same,Concentration in gills,[4]; exposed fish #2,9391 ng/g
same,"Concentration in gills, surface area-normalized",[4]; exposed fish #2,150 ng cm-2
same,Concentration in liver,[4]; exposed fish #2,8202 ng/g
same,Concentration in mucus,[4]; exposed fish #2,59 ng cm-2
same,Concentration in muscle,[4]; exposed fish #2,593 ng/g
same,Concentration in skin,[4]; exposed fish #2,1877 ng/g
same,"Concentration in skin, per surface area",[4]; exposed fish #2,160 ng cm-2
same,Concentration in blood,[4]; exposed fish #3,1018 ng/g
same,Concentration in liver,[4]; exposed fish #3,13696 ng/g
same,Concentration in mucus,[4]; exposed fish #3,52 ng cm-2
same,Concentration in muscle,[4]; exposed fish #3,601 ng/g
same,Concentration in skin,[4]; exposed fish #3,2115 ng/g
same,"Concentration in skin, per surface area",[4]; exposed fish #3,150 ng cm-2
same,Concentration in blood,[4]; exposed fish #4,858 ng/g
same,Concentration in gills,[4]; exposed fish #4,9586 ng/g
same,"Concentration in gills, surface area-normalized",[4]; exposed fish #4,178 ng cm-2
same,Concentration in liver,[4]; exposed fish #4,20532 ng/g
same,Concentration in mucus,[4]; exposed fish #4,63 ng cm-2
same,Concentration in muscle,[4]; exposed fish #4,882 ng/g
same,Concentration in skin,[4]; exposed fish #4,2718 ng/g
same,"Concentration in skin, per surface area",[4]; exposed fish #4,154 ng cm-2
same,Concentration in blood,[4]; exposed fish #5,795 ng/g
same,Concentration in gills,[4]; exposed fish #5,11785 ng/g
same,"Concentration in gills, surface area-normalized",[4]; exposed fish #5,209 ng cm-2
same,Concentration in liver,[4]; exposed fish #5,12097 ng/g
same,Concentration in mucus,[4]; exposed fish #5,70 ng cm-2
same,Concentration in muscle,[4]; exposed fish #5,767 ng/g
same,Concentration in skin,[4]; exposed fish #5,1738 ng/g
same,"Concentration in skin, per surface area",[4]; exposed fish #5,154 ng cm-2
same,Concentration in blood,[4]; exposed fish #6,1205 ng/g
same,Concentration in gills,[4]; exposed fish #6,11130 ng/g
same,"Concentration in gills, surface area-normalized",[4]; exposed fish #6,148 ng cm-2
same,Concentration in liver,[4]; exposed fish #6,9499 ng/g
same,Concentration in mucus,[4]; exposed fish #6,70 ng cm-2
same,Concentration in muscle,[4]; exposed fish #6,606 ng/g
same,Concentration in skin,[4]; exposed fish #6,2209 ng/g
same,"Concentration in skin, per surface area",[4]; exposed fish #6,162 ng cm-2
same,Concentration in blood,"[4]; mean of exposed fish, Table S10",930 ng/g
same,Concentration in muscle,"[4]; mean of exposed fish, Table S11",672 ng/g
same,Concentration in liver,"[4]; mean of exposed fish, Table S12",11766 ng/g
same,Concentration in gills,[4]; [7],10194 ng/g
same,"Concentration in gills, surface area-normalized",[4]; [7],165 ng cm-2
same,Concentration in skin,[4]; [8],2089 ng/g
same,"Concentration in skin, per surface area",[4]; [8],145 ng cm-2
same,Concentration in mucus,"[4]; mean of exposed fish, Table S15",62 ng cm-2
same,Concentration in mucus,"[4]; methanol rinse normalized to fish surface area, mean of six fish (RSD %)",62 (9) ng cm^–2
same,Concentration in blood,"[4]; wet weight, mean of six fish (RSD % in brackets), 7 d exposure, Q10 below LOQ",930 (17) ng g^–1
same,Concentration in muscle,[4]; [9],670 (19) ng g^–1
same,Concentration in skin,[4]; [9],2100 (17) ng g^–1
same,pKa,[5],9.5
"CCCCCCCCCCCCCN [P13, tridecylamine]",Apparent bioconcentration factor (BCFapp),[1],490 L kg-1 wet weight
same,Gill-water distribution coefficient (DG-W),[2],62 mLcm-2
same,Mucus-water distribution coefficient (DMuc-W),[2],25 mL cm-2
same,"Log KMW,C (membrane-water partition coefficient of the charged form), extrapolated",[3],6.16
same,concentration at 7 d,[6]; Concentration in skin,2160 ng/g
same,concentration at 7 d,"[6]; pH 7.5, Concentration in blood",495 ng/g
same,concentration at 7 d,"[6]; pH 7.5, Concentration in gills",16000 ng/g
same,concentration at 7 d,"[6]; pH 7.5, Concentration in muscle",451 ng/g
same,concentration at 7 d,"[6]; pH 7.5, Concentration in skin",2040 ng/g
same,Concentration in gills,[4]; [10],17 800 (12) ng g^–1
same,Concentration in liver,[4]; [10],50 000 (26) ng g^–1
same,Concentration in skin,[4]; [10],2400 (19) ng g^–1
same,Concentration in blood,[4]; [11],540 (12) ng g^–1
same,Concentration in muscle,[4]; [11],530 (16) ng g^–1
same,"Concentration in skin, per surface area",[4]; [11],195 ng cm-2
same,pKa,[5],10.5
